From patent US5565425A, “Viral infection and proliferation inhibitors” (Snow Brand Milk Products Co., Ltd, priority 1993, dated 1996)
Bridge positions count the residues as written; N and C are the ends. Peptide text beside a SMILES is read from it.

Assays:
HIV (HTLV-IIIB) = experiment: Inhibitory activity against HIV infection and proliferation in MT-4 cells (indirect fluorescence antibody method); type: cell-based, human immunodeficiency virus (HIV); details: three days, positive control 26.0%
Procedure: (Method) Cultured supernatant of MOLT-4/HTLV-IIIB cells, a HTLV-IIIB persistent infected strain of HIV, was used as a viral solution. The supernatant was kept at -80° C. Human T cell line MT-4 was used for the test. MT-4 was subcultured in RPMI 1640 medium containing 10% fetal calf serum (FCS). Sample, LF derived peptide, was dissolved in RPMI 1640 medium and one ml of the diluted solution at various concentrations was added to the cells. The inoculated MT-4 test sample was incubated for 60 minutes and infected with HIV at a concentration of moi […]=0.01 and one ml of the cell solution adjusted at a cell density of 3×10^5 cells/ml was added. The cells were cultured for three days : and HIV infected cells were determined with an indirect fluorescence antibody method.
HIV infected cells were determined by the indirect fluorescence antibody method using HIV infected patient serum as a primary antibody. […] HIV infected MT-4 cells cultured without addition of the sample was used as a positive control and cells without addition of viral solution was cultured to make a negative control group.

[1] = test system: mouse cytomegalo virus (mouse CMV); experiment: Infection protective test against mouse CMV by the time of administration; type: in vivo; details: mice, 0.10 g/kg i.p., after 10 days
Procedure: (Method) Male Balbc/AJcl mice, 4-week-old (10 in one group) were used. The sample was dissolved in phosphate buffer saline solution (PBS) and intraperitoneally administered to mice. […] Timing of administrations of the sample was made 48, 24, six and one hr. before, immediately after, one and six hrs. after the administration.

[2] = test system: Human CMV (Tanaka strain); experiment: Inhibitory activity against human CMV infection and proliferation in HELF cells (fluorescence staining); type: cell-based, Human cytomegalo virus
Procedure: (Method) LF derived peptide was dissolved in 2% serum added MEM medium to give five mg/ml solution, filtered and sterilized to make a stock solution. The stock solution was diluted with 2% serum added MEM medium on use. Samples containing human embryo lung fibroblast cells (HELF cells) were suspended in 2% serum added MEM medium and incubated for 10 minutes. The cells were collected by centrifugation, washed twice with 2% serum added MEM medium and suspended in 2% serum added MEM medium. Human cytomegalo virus [Human CMV (Tanaka strain)] was added, incubated for 24 hrs., fluorescence stained with human CMV positive serum and the adsorption rate of human CMV to the cells was determined.
The results are judged from the numbers of fluorescent stained cells per one cover slip.

[3] = test system: influenza virus A/PR/8/34; details: 100 μl of one mg/ml solution in allantoic cavity three hours before virus; average of five eggs
[4] = test system: mouse cytomegalo virus (mouse CMV); experiment: In vivo inhibitory activity against mouse CMV infection (survival of mice); details: after 10 days
Procedure: (Method) Male Balbc/AJcl mice, 4-week-old (10 in one group) were used. The sample was dissolved in phosphate buffer saline solution (PBS) and intraperitoneally administered to mice.

CC[C@H](C)[C@H](NC(=O)[C@@H]1CSSC[C@H](NC(=O)[C@H](CCCCN)NC(=O)[C@@H](N)[C@@H](C)O)C(=O)N[C@@H](Cc2ccccc2)C(=O)N[C@@H](CCC(N)=O)C(=O)N[C@@H](Cc2c[nH]c3ccccc23)C(=O)N[C@@H](CCC(N)=O)C(=O)N[C@@H](CCCNC(=N)N)C(=O)N[C@@H](CC(N)=O)C(=O)N[C@@H](CCSC)C(=O)N[C@@H](CCCNC(=N)N)C(=O)N[C@@H](CCCCN)C(=O)N[C@@H](C(C)C)C(=O)N[C@@H](CCCNC(=N)N)C(=O)NCC(=O)N2CCC[C@H]2C(=O)N2CCC[C@H]2C(=O)N[C@@H](C(C)C)C(=O)N[C@@H](CO)C(=O)N1)C(=O)N[C@@H](CCCCN)C(=O)N[C@@H](CCCNC(=N)N)C(=O)N[C@@H](CC(=O)O)C(=O)N[C@@H](CO)C(=O)O [Human LF (18-42)] (H-TKCFQWQRNMRKVRGPPVSCIKRDS-OH; disulfide 3-20)
ratio of stained (HIV infected) cells (HIV (HTLV-IIIB); sample 63 μg/ml): 17%
ratio of stained (HIV infected) cells (HIV (HTLV-IIIB); sample 125 μg/ml): 8.8%
ratio of stained (HIV infected) cells (HIV (HTLV-IIIB); sample 250 μg/ml): 6.7%
ratio of stained (HIV infected) cells (HIV (HTLV-IIIB); sample 500 μg/ml): 2.9%
ratio of stained (HIV infected) cells (HIV (HTLV-IIIB); sample 1,000 μg/ml): 1.1%
Survival rate ([1]; time of administration 0 hrs.): 100%
Survival rate ([1]; time of administration +1 hrs.): 100%
Survival rate ([1]; time of administration +6 hrs.): 60%
Survival rate ([1]; time of administration -1 hrs.): 100%
Survival rate ([1]; time of administration -6 hrs.): 100%
Survival rate ([1]; time of administration -24 hrs.): 100%
Survival rate ([1]; time of administration -48 hrs.): 60%
Inhibitory rate of human CMV infection ([2]; 24 hrs., concentration not given): 95.7%
Inhibitory rate (human CMV infection and proliferation) ([2]; concentration 0.04 mg/ml): 14.7%
Inhibitory rate (human CMV infection and proliferation) ([2]; concentration 0.1 mg/ml): 34.9%
Inhibitory rate (human CMV infection and proliferation) ([2]; concentration 0.2 mg/ml): 45.0%
Inhibitory rate (human CMV infection and proliferation) ([2]; concentration 0.4 mg/ml): 51.9%
Inhibitory rate (human CMV infection and proliferation) ([2]; concentration 1.0 mg/ml): 86.0%
Inhibitory rate (human CMV infection and proliferation) ([2]; concentration 2.0 mg/ml): 96.1%
Inhibitory rate of infection and proliferation of influenza virus [3]: 96.9%
Survival rate ([4]; 0.02 g/kg of body weight i.p. 24 hrs. before mouse CMV): 20%
Survival rate ([4]; 0.05 g/kg of body weight i.p. 24 hrs. before mouse CMV): 50%
Survival rate ([4]; 0.10 g/kg of body weight i.p. 24 hrs. before mouse CMV): 100%
Survival rate ([4]; 0.50 g/kg of body weight i.p. 24 hrs. before mouse CMV): 100%
